How the values were obtained:
Test in all cases: NovaScreen receptor binding panel
H1 histamine = H1 histamine (Homo sapiens, UniProt P35367); conditions: 10 μM; <50% = marginal or no activity
Protocol: (§1) Method of determining CNI-1493 receptor binding. CNI-1493 was tested at a single concentration (10 μM) in a panel of receptor binding assays by NovaScreen Biosciences Corporation (Hanover, Md.). Values were expressed as the percent inhibition of specific binding, and represented the average of duplicate tubes. Method of stereotactic intracerebroventricular injections. A rat model of intracerebroventricular (i.c.v.) injections was established in order to be able to directly deliver pharmacological agents into the brain of rats. This was necessary in order to separate drug effects on peripheral inflammation that occurred through central versus peripheral mechanisms. Lewis rats were anaesthetized with urethane (1 g/kg, i.p.) and xylazine (15 mg/rat, i.m. (intramuscular)). Rats were then placed in a stereotactic head frame (Stoelting, Wood Dale, Ill., USA). The incisor bar was adjusted until the plane defined by the lambda and bregma was parallel to the base plate. For i.c.v. injections the needle of a Hamilton syringe (25 μl) was positioned stereotactically above the lateral ventricle (0.2 mm and 1.5 mm posterior to bregma, 3.2 mm below the dura.) Solutions of the drugs tested were prepared in sterile endotoxin-free water, at the specified concentrations, and a 10-μl injection/rat was administered over 2 min, 1 h prior to either carrageenan injection, or to LPS.

NK1 neurokinin = NK1 neurokinin (Homo sapiens, UniProt P25103); conditions: 10 μM; <50% = marginal or no activity
Protocol: as §1

Type L calcium channel = conditions: 10 μM; <50% = marginal or no activity
Protocol: as §1

Type N calcium channel = Type N calcium channel (Homo sapiens, UniProt Q00975); conditions: 10 μM, average of duplicate tubes
Protocol: as §1

beta adrenergic = conditions: 10 μM; <50% = marginal or no activity
Protocol: as §1

chloride channel = conditions: 10 μM; <50% = marginal or no activity
Protocol: as §1

dopamine = conditions: 10 μM; <50% = marginal or no activity
Protocol: as §1

epidermal growth factor = epidermal growth factor (Homo sapiens, UniProt P00533); conditions: 10 μM; <50% = marginal or no activity
Protocol: as §1

[1] = tested on: glutamate (NMDA agonist site); conditions: 10 μM; <50% = marginal or no activity
Protocol: as §1

leukotriene D4 and LTD4 = conditions: 10 μM; <50% = marginal or no activity
Protocol: as §1

muscarinic = conditions: 10 μM, average of duplicate tubes
Protocol: as §1

serotonin = conditions: 10 μM, average of duplicate tubes
Protocol: as §1

site 1 sodium = conditions: 10 μM; <50% = marginal or no activity
Protocol: as §1

site 2 sodium = conditions: 10 μM; <50% = marginal or no activity
Protocol: as §1

thromboxane A2 = thromboxane A2 (Homo sapiens, UniProt P21731); conditions: 10 μM; <50% = marginal or no activity
Protocol: as §1

[2] = tested on: vasoactive intestinal peptide; conditions: 10 μM, average of duplicate tubes
Protocol: as §1

vasopressin 1 = vasopressin 1 (Homo sapiens, UniProt P37288); conditions: 10 μM; <50% = marginal or no activity
Protocol: as §1

[3] = tested on: voltage-insensitive potassium channel; conditions: 10 μM, average of duplicate tubes
Protocol: as §1

[4] = tested on: voltage-sensitive potassium channel; conditions: 10 μM, average of duplicate tubes
Protocol: as §1

Chain of vasopressin 1 (P37288 whole entry): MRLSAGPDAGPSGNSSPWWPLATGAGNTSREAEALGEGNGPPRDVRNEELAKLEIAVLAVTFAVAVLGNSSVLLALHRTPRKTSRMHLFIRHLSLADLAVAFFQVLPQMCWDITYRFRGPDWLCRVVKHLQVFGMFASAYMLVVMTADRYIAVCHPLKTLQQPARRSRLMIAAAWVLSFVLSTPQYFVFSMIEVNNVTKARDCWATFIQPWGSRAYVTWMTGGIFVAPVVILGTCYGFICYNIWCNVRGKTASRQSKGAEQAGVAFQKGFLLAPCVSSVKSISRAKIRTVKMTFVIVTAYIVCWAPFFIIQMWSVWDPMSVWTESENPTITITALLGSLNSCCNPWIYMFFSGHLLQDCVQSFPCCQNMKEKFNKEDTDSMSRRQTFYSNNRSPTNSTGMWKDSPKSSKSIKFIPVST
Chain of NK1 neurokinin (P25103 whole entry): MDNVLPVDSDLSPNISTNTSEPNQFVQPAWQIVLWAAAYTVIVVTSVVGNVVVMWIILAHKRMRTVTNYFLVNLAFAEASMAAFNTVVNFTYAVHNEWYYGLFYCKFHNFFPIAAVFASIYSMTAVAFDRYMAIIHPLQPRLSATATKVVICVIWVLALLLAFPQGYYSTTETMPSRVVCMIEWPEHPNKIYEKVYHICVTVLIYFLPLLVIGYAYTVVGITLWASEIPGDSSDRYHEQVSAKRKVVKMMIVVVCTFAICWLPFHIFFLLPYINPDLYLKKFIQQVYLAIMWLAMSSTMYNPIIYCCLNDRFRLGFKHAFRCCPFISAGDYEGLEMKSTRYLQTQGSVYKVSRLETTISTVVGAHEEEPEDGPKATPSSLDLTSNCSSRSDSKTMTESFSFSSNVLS
Chain of thromboxane A2 (P21731 whole entry): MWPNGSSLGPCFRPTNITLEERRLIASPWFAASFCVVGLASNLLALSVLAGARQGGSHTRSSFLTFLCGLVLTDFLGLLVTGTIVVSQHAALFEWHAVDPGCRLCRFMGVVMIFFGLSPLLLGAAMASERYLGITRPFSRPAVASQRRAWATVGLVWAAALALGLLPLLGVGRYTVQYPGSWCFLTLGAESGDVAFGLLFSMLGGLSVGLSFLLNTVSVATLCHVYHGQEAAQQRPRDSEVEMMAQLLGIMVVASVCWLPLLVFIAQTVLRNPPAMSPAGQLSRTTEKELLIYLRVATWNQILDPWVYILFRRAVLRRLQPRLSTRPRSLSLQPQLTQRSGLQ
Chain of Type N calcium channel (P54289 25-946): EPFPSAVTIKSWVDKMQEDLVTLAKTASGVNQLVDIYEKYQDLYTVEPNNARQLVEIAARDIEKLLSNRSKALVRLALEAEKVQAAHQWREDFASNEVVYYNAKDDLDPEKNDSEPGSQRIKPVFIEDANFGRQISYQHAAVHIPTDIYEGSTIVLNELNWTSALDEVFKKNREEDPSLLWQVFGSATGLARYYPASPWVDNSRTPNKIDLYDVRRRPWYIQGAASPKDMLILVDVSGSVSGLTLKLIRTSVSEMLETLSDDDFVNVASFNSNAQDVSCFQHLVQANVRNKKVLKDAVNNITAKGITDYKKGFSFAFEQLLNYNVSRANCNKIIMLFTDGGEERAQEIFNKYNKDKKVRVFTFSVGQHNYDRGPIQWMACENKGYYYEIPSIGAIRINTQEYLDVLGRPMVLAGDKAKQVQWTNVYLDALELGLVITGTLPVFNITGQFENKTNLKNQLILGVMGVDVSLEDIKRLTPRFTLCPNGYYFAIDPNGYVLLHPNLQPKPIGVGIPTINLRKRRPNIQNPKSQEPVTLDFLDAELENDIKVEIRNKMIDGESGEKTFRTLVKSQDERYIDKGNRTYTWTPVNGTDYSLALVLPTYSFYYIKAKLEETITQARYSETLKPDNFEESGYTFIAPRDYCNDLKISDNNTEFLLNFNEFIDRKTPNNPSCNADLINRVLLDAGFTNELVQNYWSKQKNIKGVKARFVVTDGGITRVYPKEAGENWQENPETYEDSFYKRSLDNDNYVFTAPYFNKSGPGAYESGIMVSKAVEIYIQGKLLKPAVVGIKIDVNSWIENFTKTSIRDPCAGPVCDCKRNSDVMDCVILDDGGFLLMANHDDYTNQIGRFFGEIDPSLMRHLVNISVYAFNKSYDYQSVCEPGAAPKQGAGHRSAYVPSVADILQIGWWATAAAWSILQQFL
Chain of Type N calcium channel (Q00975 whole entry): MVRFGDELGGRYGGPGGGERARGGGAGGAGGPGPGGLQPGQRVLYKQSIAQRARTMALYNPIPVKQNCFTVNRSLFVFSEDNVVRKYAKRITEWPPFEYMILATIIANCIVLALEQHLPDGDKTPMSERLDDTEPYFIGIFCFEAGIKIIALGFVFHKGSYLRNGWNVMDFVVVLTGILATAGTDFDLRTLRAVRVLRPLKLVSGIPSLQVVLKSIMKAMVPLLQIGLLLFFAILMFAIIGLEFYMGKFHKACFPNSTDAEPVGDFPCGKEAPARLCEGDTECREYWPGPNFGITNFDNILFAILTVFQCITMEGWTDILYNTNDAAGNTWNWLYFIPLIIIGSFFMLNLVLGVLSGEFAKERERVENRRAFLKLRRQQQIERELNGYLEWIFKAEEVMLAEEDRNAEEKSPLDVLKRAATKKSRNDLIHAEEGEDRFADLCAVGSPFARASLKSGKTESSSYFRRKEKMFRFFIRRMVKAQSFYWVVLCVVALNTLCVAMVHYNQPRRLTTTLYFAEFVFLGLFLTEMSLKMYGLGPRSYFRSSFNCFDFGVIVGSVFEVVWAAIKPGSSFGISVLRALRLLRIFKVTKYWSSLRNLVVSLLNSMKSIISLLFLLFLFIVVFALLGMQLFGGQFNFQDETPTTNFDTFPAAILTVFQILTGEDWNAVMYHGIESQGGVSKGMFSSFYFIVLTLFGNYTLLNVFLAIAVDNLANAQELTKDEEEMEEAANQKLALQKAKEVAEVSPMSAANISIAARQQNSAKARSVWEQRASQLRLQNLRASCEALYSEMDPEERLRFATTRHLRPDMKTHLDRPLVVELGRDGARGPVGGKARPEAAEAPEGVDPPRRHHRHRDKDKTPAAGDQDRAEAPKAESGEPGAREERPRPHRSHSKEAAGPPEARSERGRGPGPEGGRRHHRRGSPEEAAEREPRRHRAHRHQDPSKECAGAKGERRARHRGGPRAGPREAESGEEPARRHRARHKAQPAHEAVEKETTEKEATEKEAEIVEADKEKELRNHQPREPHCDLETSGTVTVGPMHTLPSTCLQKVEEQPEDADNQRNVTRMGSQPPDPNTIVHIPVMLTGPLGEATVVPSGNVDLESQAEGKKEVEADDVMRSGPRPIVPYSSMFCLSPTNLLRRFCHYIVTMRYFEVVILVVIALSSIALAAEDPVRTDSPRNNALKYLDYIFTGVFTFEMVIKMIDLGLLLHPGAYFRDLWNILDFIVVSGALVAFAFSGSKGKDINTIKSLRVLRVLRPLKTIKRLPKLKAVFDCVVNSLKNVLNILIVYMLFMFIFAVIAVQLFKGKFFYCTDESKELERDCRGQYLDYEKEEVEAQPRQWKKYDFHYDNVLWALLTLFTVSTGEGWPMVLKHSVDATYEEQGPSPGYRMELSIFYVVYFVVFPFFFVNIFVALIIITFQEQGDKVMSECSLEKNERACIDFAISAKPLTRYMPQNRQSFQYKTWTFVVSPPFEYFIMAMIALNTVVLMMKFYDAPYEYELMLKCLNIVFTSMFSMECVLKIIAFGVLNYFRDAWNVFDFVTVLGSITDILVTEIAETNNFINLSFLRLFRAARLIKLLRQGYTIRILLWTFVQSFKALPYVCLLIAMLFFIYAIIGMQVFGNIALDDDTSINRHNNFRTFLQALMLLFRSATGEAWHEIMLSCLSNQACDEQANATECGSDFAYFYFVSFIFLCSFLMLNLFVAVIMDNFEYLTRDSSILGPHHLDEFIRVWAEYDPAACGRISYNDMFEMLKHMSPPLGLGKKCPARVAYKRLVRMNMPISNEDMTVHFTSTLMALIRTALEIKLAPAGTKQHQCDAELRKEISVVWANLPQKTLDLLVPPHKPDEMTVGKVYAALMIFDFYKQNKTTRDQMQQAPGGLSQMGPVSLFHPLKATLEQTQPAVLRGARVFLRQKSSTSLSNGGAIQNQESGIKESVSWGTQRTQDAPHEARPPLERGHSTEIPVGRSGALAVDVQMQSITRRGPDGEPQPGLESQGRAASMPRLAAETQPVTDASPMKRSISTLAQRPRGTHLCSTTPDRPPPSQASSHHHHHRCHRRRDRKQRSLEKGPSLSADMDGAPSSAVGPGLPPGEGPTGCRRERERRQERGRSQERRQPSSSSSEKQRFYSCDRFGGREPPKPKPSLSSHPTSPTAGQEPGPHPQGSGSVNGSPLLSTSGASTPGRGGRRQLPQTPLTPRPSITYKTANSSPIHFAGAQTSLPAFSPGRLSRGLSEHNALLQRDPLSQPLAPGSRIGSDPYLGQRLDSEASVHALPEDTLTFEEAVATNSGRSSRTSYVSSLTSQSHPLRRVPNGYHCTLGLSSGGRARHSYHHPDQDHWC
Chain of Type N calcium channel (P54289 947-1103): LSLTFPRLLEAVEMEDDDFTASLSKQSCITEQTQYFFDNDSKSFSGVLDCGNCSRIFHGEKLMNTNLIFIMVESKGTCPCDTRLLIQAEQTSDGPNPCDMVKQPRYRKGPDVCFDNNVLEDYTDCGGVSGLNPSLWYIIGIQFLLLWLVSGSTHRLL
Chain of Type N calcium channel (P54284 whole entry, further chain): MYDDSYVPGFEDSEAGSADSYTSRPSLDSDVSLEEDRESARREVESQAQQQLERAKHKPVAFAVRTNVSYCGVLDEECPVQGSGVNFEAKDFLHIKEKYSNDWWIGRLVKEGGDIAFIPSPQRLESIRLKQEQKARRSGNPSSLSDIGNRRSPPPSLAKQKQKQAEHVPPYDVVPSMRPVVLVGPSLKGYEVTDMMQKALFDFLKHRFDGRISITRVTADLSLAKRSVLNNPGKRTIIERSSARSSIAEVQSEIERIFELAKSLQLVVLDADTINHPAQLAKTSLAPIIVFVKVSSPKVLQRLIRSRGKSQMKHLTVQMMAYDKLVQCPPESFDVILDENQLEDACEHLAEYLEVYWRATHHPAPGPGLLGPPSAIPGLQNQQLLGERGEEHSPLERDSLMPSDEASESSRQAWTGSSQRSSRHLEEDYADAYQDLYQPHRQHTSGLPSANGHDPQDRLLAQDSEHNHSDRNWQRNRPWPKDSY

## CC(=NNC(=N)N)c1cc(NC(=O)CCCCCCCCC(=O)Nc2cc(C(C)=NNC(=N)N)cc(C(C)=NNC(=N)N)c2)cc(C(C)=NNC(=N)N)c1.Cl.Cl.Cl.Cl [CNI-1493, N,N′-bis(3,5-diacetylphenyl) decanediamide tetrakis (amidinohydrazone) tetrahydrochloride]
H1 histamine
  percent inhibition of receptor binding: less than 50%
NK1 neurokinin
  percent inhibition of receptor binding: less than 50%
Type L calcium channel
  percent inhibition of receptor binding: less than 50%
Type N calcium channel
  percent inhibition of specific binding: 84.2%
Beta adrenergic
  percent inhibition of receptor binding: less than 50%
Chloride channel
  percent inhibition of receptor binding: less than 50%
dopamine
  percent inhibition of receptor binding: less than 50%
Epidermal growth factor
  percent inhibition of receptor binding: less than 50%
[1]
  percent inhibition of receptor binding: less than 50%
Leukotriene D4 and LTD4
  percent inhibition of receptor binding: less than 50%
muscarinic
  percent inhibition of specific binding: 60.6%
serotonin
  percent inhibition of specific binding: 75.6%
Site 1 sodium
  percent inhibition of receptor binding: less than 50%
Site 2 sodium
  percent inhibition of receptor binding: less than 50%
Thromboxane A2
  percent inhibition of receptor binding: less than 50%
[2]
  percent inhibition of specific binding: 58.5%
Vasopressin 1
  percent inhibition of receptor binding: less than 50%
[3]
  percent inhibition of specific binding: 60.2%
[4]
  percent inhibition of specific binding: 73.0%

Source: patent publication US20080140138A1, “Inhibition of inflammatory cytokine production by stimulation of brain muscarinic receptors” (priority 2002, published 2008)
